ChEMBL document CHEMBL1201862, “PubChem BioAssay data set” (2004)
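All cell lines were grown in 96-well plates and treated with compound for 48 hours. Here, GI50 denotes the concentration required for 50% inhibition of growth.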 Calls of active or inactive are those of the source. Rule as the data show it: active = GI50 up to about 1.1 µM and inactive = higher.

Columns and labels:
Experiment in all cases: growth of human tumour cells (NCI), 48 h
A498 = test system: A498
ACHN = test system: ACHN
EKVX = test system: EKVX
HCT-116 = test system: HCT-116
MOLT-4 = test system: MOLT-4
NCI-H460 = test system: NCI-H460
OVCAR-8 = test system: OVCAR-8
SF-268 = test system: SF-268
SF-295 = test system: SF-295
SF-539 = test system: SF-539
SK-MEL-5 = test system: SK-MEL-5
SNB-75 = test system: SNB-75
U-251 = test system: U-251
UACC-257 = test system: UACC-257
RXF 393 = test system: RXF 393

Measured: GI50

Cc1cccc(C2=C/C(=C(\SS/C(C(=O)c3ccc(OCC(=O)O)c(Cl)c3Cl)=C3\C=C(c4cccc(C)c4)SS3)C(=O)c3ccc(OCC(=O)O)c(Cl)c3Cl)SS2)c1
inactive: A498 24.4 µM | ACHN 12.4 µM | EKVX 56.5 µM | HCT-116 10.2 µM | MOLT-4 13.6 µM | NCI-H460 27.2 µM | OVCAR-8 11.7 µM | SF-268 10.8 µM | SF-295 24.5 µM | SF-539 12.4 µM | SK-MEL-5 15.9 µM | SNB-75 18.7 µM | U-251 4.51 µM | UACC-257 34.4 µM

Cc1ccc(NC(=O)C2C3CCC(O3)C2C(=O)O)cc1 (centres undefined)
inactive: A498 > 45.1 µM | ACHN > 93.5 µM | EKVX > 94.4 µM | HCT-116 > 39 µM | MOLT-4 > 87.9 µM | NCI-H460 > 71.4 µM | OVCAR-8 > 100 µM | RXF 393 15.8 µM | SF-268 > 53.2 µM | SF-295 > 95.9 µM | SF-539 > 57.7 µM | SK-MEL-5 > 75 µM | SNB-75 31.9 µM | U-251 43.1 µM | UACC-257 > 100 µM

Cn1c(=O)c2c3ccccc3c(C(=O)c3ccccc3)n2c2ccccc21
inactive: A498 7.31 µM | ACHN 24 µM | EKVX > 89.3 µM | HCT-116 4.12 µM | MOLT-4 3.94 µM | NCI-H460 3.48 µM | OVCAR-8 16.4 µM | RXF 393 14.7 µM | SF-268 20 µM | SF-295 5.69 µM | SF-539 16.3 µM | SK-MEL-5 6.08 µM | SNB-75 3.18 µM | U-251 18.9 µM | UACC-257 > 100 µM

Cc1cc2c(=O)cc(-c3ccncc3)oc2c(C(=O)O)c1C
inactive: ACHN > 100 µM | EKVX > 100 µM | HCT-116 > 100 µM | MOLT-4 > 100 µM | NCI-H460 > 100 µM | OVCAR-8 > 100 µM | RXF 393 > 100 µM | SF-268 > 100 µM | SF-295 > 100 µM | SF-539 > 100 µM | SNB-75 > 100 µM | U-251 > 100 µM | UACC-257 > 100 µM

O=C(Nc1cccc(Cl)c1)c1cc2cc(/N=N/c3ccc(Br)cc3)ccc2oc1=O
inactive: A498 > 100 µM | ACHN 23.7 µM | EKVX 34.3 µM | HCT-116 37.2 µM | MOLT-4 14.9 µM | NCI-H460 36 µM | OVCAR-8 58.7 µM | RXF 393 16.1 µM | SF-268 14.6 µM | SF-295 42 µM | SF-539 56.2 µM | SK-MEL-5 36.8 µM | SNB-75 37 µM | U-251 26.7 µM | UACC-257 33.3 µM

C[Si]12OCCCN(CCO1)CCO2
inactive: A498 > 100 µM | ACHN > 100 µM | EKVX > 100 µM | HCT-116 > 100 µM | MOLT-4 > 100 µM | NCI-H460 > 100 µM | OVCAR-8 > 100 µM | RXF 393 > 100 µM | SF-268 > 100 µM | SF-295 > 100 µM | SF-539 > 100 µM | SK-MEL-5 > 100 µM | SNB-75 > 100 µM | U-251 > 100 µM | UACC-257 > 100 µM

CSC(=N)N1N=C2c3ccccc3CC[C@@H]2[C@@H]1c1ccccc1
inactive: A498 16.7 µM | ACHN 18.3 µM | EKVX 17.5 µM | HCT-116 4.8 µM | MOLT-4 9.71 µM | NCI-H460 13.2 µM | OVCAR-8 15 µM | RXF 393 13.9 µM | SF-268 22 µM | SF-295 14.4 µM | SF-539 13.9 µM | U-251 17.1 µM | UACC-257 18.5 µM

Cc1cccc(C(C)C)c1NC(=O)CCl
inactive: A498 > 100 µM | ACHN 73.3 µM | EKVX 20.6 µM | HCT-116 50.2 µM | MOLT-4 63.7 µM | NCI-H460 64.6 µM | RXF 393 25.2 µM | SF-268 38 µM | SF-295 92 µM | SF-539 > 100 µM | SK-MEL-5 91.4 µM | SNB-75 33.7 µM | U-251 40.7 µM | UACC-257 > 100 µM

Cc1ccc(NC(=O)CC(=O)n2nc(-c3ccccc3)c(/N=N/c3ccc(Cl)cc3)c2-c2ccccc2)cc1
inactive: A498 > 100 µM | ACHN 27.6 µM | EKVX > 100 µM | HCT-116 19.5 µM | MOLT-4 83.9 µM | NCI-H460 40.3 µM | OVCAR-8 26 µM | SF-268 > 100 µM | SF-295 58.9 µM | SF-539 28.8 µM | SK-MEL-5 > 100 µM | SNB-75 22.6 µM | UACC-257 33.8 µM

Cn1cnc([N+](=O)[O-])c1Sc1nnnn1-c1ccccc1
inactive: A498 18.7 µM | ACHN 13.9 µM | EKVX 16 µM | HCT-116 11.3 µM | MOLT-4 2.17 µM | NCI-H460 16.5 µM | OVCAR-8 13.8 µM | SF-268 19.5 µM | SF-295 17.8 µM | SF-539 12.2 µM | SK-MEL-5 16.1 µM | SNB-75 16.4 µM | U-251 13 µM | UACC-257 13.7 µM

C=CCCCC(C#N)(c1ccccc1)N1CCCC1 (centres undefined)
inactive: A498 > 100 µM | ACHN > 100 µM | EKVX > 100 µM | HCT-116 > 100 µM | MOLT-4 > 100 µM | NCI-H460 > 100 µM | OVCAR-8 > 100 µM | RXF 393 > 100 µM | SF-268 > 100 µM | SF-295 > 100 µM | SF-539 > 100 µM | SK-MEL-5 > 100 µM | SNB-75 > 100 µM | U-251 > 100 µM | UACC-257 > 100 µM

Cc1cccc(C)c1NC(=O)CCCC(=O)C(C#N)c1ccc(Cl)cc1 (centres undefined)
inactive: A498 > 100 µM | ACHN > 100 µM | EKVX > 100 µM | HCT-116 > 100 µM | MOLT-4 > 100 µM | NCI-H460 > 100 µM | OVCAR-8 > 100 µM | SF-268 > 100 µM | SF-295 > 100 µM | SF-539 > 100 µM | SK-MEL-5 > 100 µM | SNB-75 35.6 µM | U-251 > 100 µM | UACC-257 > 100 µM

CC(=O)N1C(=O)C(=O)c2cc(Cl)ccc21
inactive: A498 > 100 µM | ACHN > 100 µM | EKVX > 100 µM | MOLT-4 > 100 µM | NCI-H460 > 100 µM | OVCAR-8 > 100 µM | RXF 393 > 100 µM | SF-268 > 100 µM | SF-295 > 100 µM | SF-539 > 100 µM | SK-MEL-5 > 100 µM | SNB-75 > 100 µM | U-251 > 100 µM

COc1c(OC)c(N)c2cc(C)c(=O)c(C)cc2c1N
inactive: A498 > 100 µM | ACHN > 100 µM | EKVX > 100 µM | HCT-116 97.1 µM | MOLT-4 > 100 µM | NCI-H460 > 100 µM | OVCAR-8 > 100 µM | RXF 393 > 100 µM | SF-268 > 100 µM | SF-295 > 100 µM | SF-539 > 100 µM | SK-MEL-5 > 100 µM | SNB-75 56.4 µM | U-251 > 100 µM | UACC-257 > 100 µM

N#CC(C#N)=C1NC(=O)CC(=O)N1
inactive: A498 > 100 µM | EKVX > 100 µM | HCT-116 > 100 µM | MOLT-4 > 100 µM | NCI-H460 > 100 µM | OVCAR-8 > 100 µM | RXF 393 > 100 µM | SF-268 > 100 µM | SF-295 > 100 µM | SF-539 > 100 µM | SK-MEL-5 > 100 µM | SNB-75 > 100 µM | U-251 > 100 µM | UACC-257 > 100 µM

C#C[C@]1(O)CCCC2=CC(=O)CC[C@@]21C
inactive: ACHN > 100 µM | EKVX > 100 µM | MOLT-4 > 100 µM | NCI-H460 > 100 µM | OVCAR-8 > 100 µM | RXF 393 > 100 µM | SF-268 > 100 µM | SF-295 > 100 µM | SF-539 > 100 µM | SK-MEL-5 > 100 µM | U-251 > 100 µM | UACC-257 > 100 µM

C[C@@H](CO)OCOCc1ccccc1
inactive: A498 > 100 µM | HCT-116 > 100 µM | MOLT-4 > 100 µM | NCI-H460 > 100 µM | RXF 393 > 100 µM | SF-268 > 100 µM | SF-295 > 100 µM | SF-539 > 100 µM | SK-MEL-5 > 100 µM | SNB-75 > 100 µM | U-251 > 100 µM | UACC-257 > 100 µM

O=C(Nc1cccc(O)c1)C(=O)C(C(=O)c1ccc(Cl)c(Cl)c1)C1OC(=O)c2ccccc21 (centres undefined)
inactive: A498 19.5 µM | ACHN 14.6 µM | EKVX 18.5 µM | HCT-116 25.7 µM | MOLT-4 5.01 µM | NCI-H460 13.2 µM | OVCAR-8 10.7 µM | RXF 393 20.9 µM | SF-268 10.4 µM | SF-295 20.3 µM | SK-MEL-5 19.7 µM | SNB-75 17.8 µM | U-251 8.02 µM | UACC-257 20.6 µM

COC(=O)C(=O)C(C(=O)C(=O)Nc1ccc([N+](=O)[O-])cc1)c1nc2ccccc2nc1O (centres undefined)
inactive: A498 > 100 µM | ACHN 55.2 µM | HCT-116 > 100 µM | MOLT-4 > 100 µM | NCI-H460 > 100 µM | OVCAR-8 > 100 µM | RXF 393 > 100 µM | SF-268 > 100 µM | SK-MEL-5 43.6 µM | SNB-75 > 100 µM | U-251 > 100 µM | UACC-257 55.7 µM

Oc1cccc2c1NC1=C(CCC/C1=C\c1ccccc1)C2
inactive: ACHN 53.5 µM | EKVX > 100 µM | HCT-116 82.6 µM | MOLT-4 34.8 µM | NCI-H460 57.1 µM | OVCAR-8 > 100 µM | SF-268 > 100 µM | SF-295 71.8 µM | SF-539 20.6 µM | SK-MEL-5 > 100 µM | U-251 69 µM | UACC-257 57.9 µM
